Earlier results as cited in patent publication US12084451B2, “Compositions and methods for reducing tactile dysfunction, anxiety, and social impairment” (President and Fellows of Harvard College, priority 2018, dated 2024).

Tested on: GABAA targets
Details: previous study (US034-0003415); cited from earlier work

In the case of `O=C(O)C1=CCNCC1` [Isoguvacine], the “agonist activity against GABAA targets” value is listed as “exhibited agonist activity”.
